Values quoted from earlier work, collected in patent US12653843B2, “Compositions comprising extracellular matrix of primitive animal species and related methods” (University of Pittsburgh—Of the Commonwealth System of …, priority 2016, dated 2026).

Biological target: ErbB2 (Homo sapiens, UniProt P04626)
Sequence (P04626 23-1255, species assumed): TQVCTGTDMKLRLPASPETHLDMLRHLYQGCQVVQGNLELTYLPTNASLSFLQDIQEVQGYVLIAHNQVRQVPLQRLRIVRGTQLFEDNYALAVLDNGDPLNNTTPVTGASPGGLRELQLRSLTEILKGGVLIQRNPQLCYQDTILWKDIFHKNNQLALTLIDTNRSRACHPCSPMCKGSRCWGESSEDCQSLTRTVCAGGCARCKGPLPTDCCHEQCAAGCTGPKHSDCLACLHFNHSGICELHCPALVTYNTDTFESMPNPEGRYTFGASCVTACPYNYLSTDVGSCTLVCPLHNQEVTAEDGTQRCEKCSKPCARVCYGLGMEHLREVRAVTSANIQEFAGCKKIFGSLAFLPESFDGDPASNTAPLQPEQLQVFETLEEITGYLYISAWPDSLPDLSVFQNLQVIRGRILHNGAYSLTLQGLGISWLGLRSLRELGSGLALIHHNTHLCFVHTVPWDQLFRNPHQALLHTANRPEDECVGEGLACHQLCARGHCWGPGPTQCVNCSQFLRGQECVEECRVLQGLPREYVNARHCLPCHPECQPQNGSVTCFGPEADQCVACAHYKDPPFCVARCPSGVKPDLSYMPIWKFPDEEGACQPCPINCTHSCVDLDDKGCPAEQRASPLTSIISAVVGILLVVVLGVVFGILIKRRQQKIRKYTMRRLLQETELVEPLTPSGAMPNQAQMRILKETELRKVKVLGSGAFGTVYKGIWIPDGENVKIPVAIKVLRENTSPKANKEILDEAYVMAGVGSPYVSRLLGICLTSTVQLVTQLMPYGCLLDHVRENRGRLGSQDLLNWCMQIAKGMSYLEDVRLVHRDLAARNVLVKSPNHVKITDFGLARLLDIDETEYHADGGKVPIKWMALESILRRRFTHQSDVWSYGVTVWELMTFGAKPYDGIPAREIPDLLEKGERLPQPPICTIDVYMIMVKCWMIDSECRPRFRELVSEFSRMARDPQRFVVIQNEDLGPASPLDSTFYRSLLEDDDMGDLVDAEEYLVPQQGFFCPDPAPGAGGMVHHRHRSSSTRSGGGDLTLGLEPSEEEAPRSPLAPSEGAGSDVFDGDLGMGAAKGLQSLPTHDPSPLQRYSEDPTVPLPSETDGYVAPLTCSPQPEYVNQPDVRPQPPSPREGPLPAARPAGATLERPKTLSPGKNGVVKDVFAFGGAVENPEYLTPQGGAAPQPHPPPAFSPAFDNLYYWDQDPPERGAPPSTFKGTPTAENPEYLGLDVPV

selectivity: inhibition of ErbB2 autophosphorylation versus ErbB1 (EGFR): ~60 fold
SMILES: COc1cc(/C=C(\C#N)C(N)=O)cc(CSc2nc3ccccc3s2)c1O [AG825]
